Several values for one entry are separate records, joined by “and”; a condition that tells them apart may be missing. Equal values may be shown once.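 Step 1: Grow cells in 96-well plates. Step 2: Expose to compound for 48 hours at 5 concentrations. Step 3: Interpolate endpoints linearly; if unreached, use highest concentration. GI50: concentration for 50% inhibition of growth. TGI denotes the concentration required for complete inhibition of growth.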
What was measured:
Assay in all cases: DTP human tumour cell line panel, 48 h
[1] = system: HCT-116 colon
[2] = system: KM12 colon
[3] = system: SF-295 CNS
[4] = system: MALME-3M melanoma
[5] = system: OVCAR-8 ovarian
[6] = system: MOLT-4 leukemia
[7] = system: UO-31 renal
[8] = system: TK-10 renal
[9] = system: PC-3 prostate
[10] = system: T-47D breast

SMILES	TGI [1]	TGI [2]	TGI [3]	TGI [4]	TGI [5]	TGI [6]	TGI [7]	TGI [8]	GI50 [1]	GI50 [9]	TGI [9]	GI50 [2]	GI50 [3]	GI50 [4]	GI50 [5]	GI50 [10]	TGI [10]	GI50 [7]	GI50 [8]	GI50 [6]
CN(C)CCNc1nc(-c2cccs2)cc(-c2cccs2)n1	23.4 µM	28.5 µM	28.2 µM	30.9 µM	21.7 µM	13.4 µM	23.6 µM	29 µM												
COC(=O)Cc1nc2ccccc2o1	> 100 µM	> 100 µM	> 100 µM	> 100 µM	> 100 µM	> 100 µM	> 100 µM	> 100 µM												
COc1cc([C@@H]2c3cc4c(cc3C[C@H]3COC(=O)[C@@H]32)OCO4)cc2c1OCO2		3.2 µM	< 0.01 µM	> 100 µM		> 100 µM	> 100 µM	3.48 µM												
CCOC(=O)NC(=O)c1c[nH]c(=O)[nH]c1=O	> 100 µM	> 100 µM	> 100 µM	> 100 µM	> 100 µM	> 100 µM	> 100 µM	> 100 µM												
Cc1ccc(S(=O)OC23CC4CC(CC(C4)C2)C3)cc1 (configuration not stated)	> 100 µM	> 100 µM	> 100 µM	> 100 µM	> 100 µM	> 100 µM	> 100 µM	> 100 µM												
O=C1c2ccn(CCCCN3CCC(O)CC3)c2C(=O)c2c1c(O)c1ccccc1c2O		5.2 µM	9.69 µM	41.8 µM	75.3 µM		11.9 µM	3.36 µM	1.84 µM	1.35 µM	3.16 µM	1.96 µM	3.25 µM	16.5 µM	25.6 µM	> 46 µM	> 67.6 µM	2.4 µM	1.65 µM	
COc1ccc(C(=O)O/N=C2/CCC/C2=C\c2ccccc2)cc1	> 100 µM	> 100 µM	> 100 µM	> 100 µM	> 100 µM	> 100 µM	> 100 µM	> 100 µM												
CN(C)CC1CCCC/C1=N/OC(=O)c1ccc(Cl)c(Cl)c1 (configuration not stated)	> 100 µM	> 100 µM	> 100 µM	> 100 µM	> 100 µM		> 100 µM	> 100 µM												
OCC(O)C(OC1OC(CO)C(O)C(O)C1O)c1nn(-c2ccccc2)c2nc3cc(Cl)ccc3nc12 (configuration not stated)	> 100 µM	> 100 µM	> 100 µM	> 100 µM	> 100 µM	> 100 µM	> 100 µM	> 100 µM												
COc1ccc(C2=NOP(c3ccccc3)(c3ccccc3)(c3ccccc3)C2)cc1	21.4 µM	> 100 µM	61.2 µM	50.9 µM	> 92.7 µM	41.2 µM	> 100 µM	> 100 µM												
Cc1ccc(NC(=O)CCC(=O)C(C#N)c2ccccc2)cc1C (configuration not stated)	> 100 µM	> 100 µM	> 100 µM	> 100 µM	> 100 µM	> 100 µM	> 100 µM	> 100 µM												
C[N+](C)(C)CC1CCCC/C1=N\O (configuration not stated)	> 100 µM	> 100 µM	> 100 µM	> 100 µM	> 100 µM	> 100 µM	> 100 µM	> 100 µM												
O=C(/C(=C/c1ccccc1)c1ccccc1)N1c2ccccc2CC1c1c[nH]c2ccccc12 (configuration not stated)	> 100 µM	> 100 µM	> 100 µM	> 100 µM	> 100 µM	49.7 µM	> 100 µM	> 100 µM												
C#CCN(C)C(=O)N(CC#C)N=O	> 100 µM	> 100 µM	> 100 µM	> 100 µM	> 100 µM	> 100 µM	> 100 µM	> 100 µM												
Nc1c(-c2nc3ccccc3[nH]2)sc(=S)n1-c1ccc(Cl)cc1		78.3 µM	43.6 µM	> 100 µM	54.5 µM	> 100 µM	55.7 µM	56.1 µM												
Cc1nnc(-c2ccc(-c3nc4ccccc4o3)cc2)o1	> 100 µM	> 100 µM	> 100 µM		> 100 µM		> 100 µM	> 100 µM	> 100 µM	34.7 µM	> 100 µM	43.3 µM	40.1 µM		85.6 µM	> 100 µM	> 100 µM	> 100 µM	> 100 µM	
Cc1sc2ncn(Cc3ccc(Cl)c(Cl)c3)c(=O)c2c1C	44.8 µM	11.7 µM	22.7 µM		> 100 µM	> 100 µM	> 100 µM	7.91 µM	17.4 µM	20.1 µM	> 100 µM	2.44 µM	3.85 µM		50.8 µM	24.8 µM	> 100 µM	31.4 µM	1.81 µM	79.3 µM
Cc1cc(O)cc2c1c(=O)c1ccccc1n2C	> 100 µM	> 100 µM	> 100 µM		> 100 µM	> 100 µM	> 100 µM	> 100 µM			> 100 µM						> 100 µM			
COc1ccc2nc3cccc(C(=O)NCCN(C)C)c3nc2c1	2.6 µM	9.82 µM	> 22.8 µM	2.69 µM		1.19 µM	> 100 µM	8.6 µM												
COc1cc(C2c3cc4c(cc3[C@@H](Nc3ccc(N)cc3)C3COC(=O)[C@H]23)OCO4)cc(OC)c1O (some centres not stated)	23 µM	14.3 µM	4.76 µM	19.7 µM	15.8 µM	0.8 µM and 0.825 µM	4.79 µM	23.7 µM	0.973 µM		16.5 µM		0.502 µM	0.849 µM	0.87 µM			0.727 µM		0.175 µM and 0.0292 µM
Nc1nc(N)c(-c2ccccc2)c(CCC(=O)Nc2ccc(Cl)cc2)n1	> 100 µM	> 100 µM	> 100 µM	> 100 µM	> 100 µM	> 100 µM	> 100 µM	> 100 µM												
O=C(Nc1cccc(C(F)(F)F)c1)c1cc(Br)cc(Br)c1O	5.44 µM	> 10 µM	7.19 µM		> 10 µM	> 10 µM	8.51 µM	7.38 µM			7.28 µM						9.69 µM			

Reference: PubChem BioAssay (NCI)
